Measured values taken from patent US9744189B1, “Compositions of lithium salts and methods of use” (University of South Florida, priority 2013, dated 2017).
Like-named read-outs stand apart in the source and are kept apart here.

Tests used:
[1] = for AUC(0-72): 0-72 h; for TMAX: noncompartmental analysis; for time of peak brain lithium level (FIG. 4-5): post-dose
Experimental: (§1) Male Sprague Dawley rats weighing 200-250 grams were housed in a vivarium with a 12 hour light-dark cycle. The rats were allowed to acclimate for a period of one week before any experiments were carried out, and were allowed free access to food and water throughout the experiment.
(§2) Animals in each treatment group were euthanized at 2, 24, 48, and 72 hours (n=3/time point) and blood was collected by cardiac puncture and carefully perfused with a pressure-controlled pump to maintain microvasculature integrity before removing brain tissue. Blood was centrifuged at 1600×g at room temperature for 10 minutes and plasma was separated. A 500 μl aliquot was diluted 10 fold in a 5% TCA and 10% IPA solution, vortexed and allowed to sit for 10 minutes in order to precipitate proteins. These aliquots were centrifuged at 3000×g for 30 minutes and the supernatant was transferred to clean tubes prior to measuring lithium content using atomic absorption spectroscopy (AAS). Brains were rinsed with PBS, weighed, and an equal volume of concentrated HNO3 was added. The brains were heated in nitric acid solution for 1 hour, allowed to cool to room temperature, then centrifuged at 3000×g for 1 hour. The supernatant was removed and diluted 10 fold in 10% IPA prior to measuring lithium content using AAS.
(§3) The reported parameters include CMAX, TMAX, area under curve (AUC), and apparent terminal half-life (HL_Lambda_z).
(§4) Lithium was measured using atomic absorption spectroscopy (AAS) (Shimadzu AA-6200; Shimadzu Scientific Instruments, Inc., Columbia, Md.). Peak height measurements were carried out referring to values obtained for standards of known concentrations. Lithium measurements were plotted using GraphPad PRISM software (GraphPad Software, Inc., La Jolla, Calif.) as mean±SEM and two tailed t-tests were used to assess the statistical significance at each time point for the pharmacokinetic curves. The criterion for rejection of the null hypothesis was p<0.05.

[2] = for AUC(0-72): 0-72 h; for TMAX: noncompartmental analysis; for time of peak lithium plasma level (FIG. 2-3): post-dose
Experimental: as §1, §2, §3, §4

in vivo [3] = details: male, Sprague-Dawley, rat, brain, oral, 4 mEq/kg
Experimental: as §1, §2, §3, §4

in vivo [4] = details: male, Sprague-Dawley, rat, plasma, oral, 4 mEq/kg
Experimental: as §1, §2, §3, §4

[5] = rats; carbonate vs chloride vs orotate; cited from earlier work
[6] = previous reports; cited from earlier work
[7] = cited from earlier work
[8] = Brain, rats, 4 mEq/kg oral gavage
[9] = Blood, rats, 4 mEq/kg oral gavage

Row | Compound | AUC(0-72) [1, 8] [µg·h/g] | TMAX [1, 8] [h] | brain lithium level at 24 hours ([1]; brain) | brain lithium level by 72 hours ([1]; brain) | time of peak brain lithium level (FIG. 4-5) ([1]; brain, rats) [h] | CMAX [2, 9] [µg/mL] | AUC(0-72) [2, 9] [µg·h/mL] | TMAX [2, 9] [h] | lithium plasma level by 48 hours ([2]; plasma) | lithium plasma level by 72 hours ([2]; plasma) | time of peak lithium plasma level (FIG. 2-3) ([2]; plasma, rats) | differences in uptake, distribution and excretion of the lithium ion [5] | also measured
1 | CC(O)C(=O)[O-].[Li+] (stereo not drawn) [Lithium Lactate, lithium lactate] | 152.0 | 24 | around 4 μg/ml | negligible levels | 24 | 4.54 | 157.2 | 24 | about 0.5 μg/ml | around 0 μg/ml | 24 h | – | HL_Lambda_z (apparent terminal half-life) [1, 8]: 13.0 h; HL_Lambda_z (apparent terminal half-life) [2, 9]: 6.9 h
2 | O=C([O-])c1ccccc1O.[Li+] [Lithium Salicylate, lithium salicylate] | 153.1 | 48 | – | – | 48 | 2.21 | 121.8 | 24 | – | – | around 48 hours | – | concentration at 24 h (in vivo [3]): ~2500 ng/mL; concentration at 48 h (in vivo [3]): 3000 ng/mL; concentration at 72 h (in vivo [3]): 2000 ng/mL; concentration at 24 h (in vivo [4]): 2100 ng/mL; concentration at 48 h (in vivo [4]): 2000 ng/mL; concentration at 72 h (in vivo [4]): ~250 ng/mL
3 | O=C([O-])[O-].[Li+].[Li+] [lithium carbonate, reference compound] | – | – | 8 µg/mL | about 0.5 μg/ml | 24 | – | – | – | about 0.5 μg/ml | around 0 μg/ml | 24 h | no differences | time to elimination [6]: ≤ 48 h; brain lithium level at 48 hours ([1]; brain, 48 hours): about 3.8 μg/ml; peak lithium plasma level relative to lithium lactate ([2]; plasma, 24 hours): about 2.5 times; lithium plasma level at 24 hours (peak) ([2]; plasma, 24 hours post-dose): about 12 μg/ml
4 | [Cl-].[Li+] [lithium chloride] | – | – | – | – | – | – | – | – | – | – | – | no differences | –
5 | O=C([O-])c1cc(=O)[nH]c(=O)[nH]1.[Li+] [lithium orotate] | – | – | – | – | – | – | – | – | – | – | – | no differences | –
6 | [Li] [lithium] | – | – | – | – | – | – | – | – | – | – | – | – | elimination half-life ([7]; acute treatment): 24 h; CNS levels of lithium relative to plasma levels ([7]; in vivo): approximately 40%; serum levels considered toxic ([7]; in vivo): ≥ 2.0; serum levels that increase the likelihood of toxicity and detrimental effects ([7]; in vivo): greater than 1.5 mEq/l; time to peak plasma levels after overdoses ([7]; overdose): 72 h; elimination half-life ([7]; some chronically treated individuals): ≤ 60 h
